These results are taken from US10980910B2, “Apparatus and methods for ozone generation and degradation” (Gene Therapy Systems, Inc., priority 2013, dated 2021).

Where two headings read alike, the source gives them in different places. Bounds are passed on as bounds.

The conditions of data set [1]: cited from earlier work.
The test system of another data set is bacteriophage T1. Nature of the data set: Effect of ozone on bacteriophage T1 spotted on LB agar plates. The following applies: spots of 10^9 to 10^6 pfu/mL; ozone 4 hours, peak less than 150 ppm; silver-coated mesh generator; DH5 E. coli overlay, 72 hours at room temperature. It counts as cell-based. Here is the method:
In Experiment 2, the effect of ozone on bacteriophage T1 was studied. In the experiment, 2.5 μL of purified bacteriophage T1 was spotted in four quadrants of two LB agar plates—a test plate 610 and a control plate 620, shown in FIG. 6. The bacteriophage concentrations on each of the two plates were (clockwise from the spot in the upper right quadrant): 10^9 pfu/mL, 10^8 pfu/mL, 10^7 pfu/mL, and 10^6 pfu/mL.
The test plate 610 was placed in an incubator chamber containing both an ozone generator and an ozone degrader. The ozone generator included two ceramic plates surrounded substantially by a silver-coated metal mesh. The ozone generator was activated and the test plate 610 was treated with ozone for 4 hours. The ozone generator was then turned off, and the ozone degrader, formed of activated carbon filters, accelerated the conversion of ozone to oxygen. The peak ozone concentration level generated within the incubator chamber was less than 150 ppm ozone.
The control plate 620 was placed in a different incubator chamber and left untreated. After the ozone generation and degradation cycle completed in the incubator chamber containing the test plate 610, 1 mL of stationary DH5 E. coli bacteria and top agar were added to each plate and incubated at room temperature for 72 hours. The photograph 600 in FIG. 6 was taken immediately following this 72-hour period.

For another data set, the system named is humans. The following applies: OSHA limit, per workday; cited from earlier work.
The subject of data set [2] is E. coli K-12 cells (strain DH5). Nature of the data set: Sterilization efficacy on LB agar plates loaded with E. coli, ozone generation and degradation cycle in cell culture chamber. It counts as cell-based. As to conditions: test #2 dish; approx. 1.5×10^8 cells plated; ozone 120 minutes plus 15 minutes degradation; peak approx. 140-150 ppm ozone; plates incubated at 37° C. overnight. Here is the method: In tests #2 and #3, represented by lines 520 and 530, respectively, both the ozone generator and an ozone degrader were present in the cell culture chamber. The ozone degrader was formed of three activated carbon filters. With the ozone degrader present, the ozone generator was unable to achieve the peak ozone concentration seen in test #1. In tests #2 and #3, the ozone generator was run for 120 minutes and the concentration of ozone noticeably plateaued. The air within the cell culture chamber reached a peak ozone concentration of approximately 140-150 ppm ozone. After the ozone generator was turned off, the ozone began to break down at an accelerated rate with the activated carbon filters present. In both tests #2 and #3, the ozone levels reached a level of 0.01 ppm ozone within 15 minutes.
While the peak ozone concentrations reached in tests #2 and #3 were noticeably lower than the peak ozone concentration of test #1, the ozone levels in tests #2 and #3 were at least sufficient to achieve sterilization. In each of tests #2 and #3, sterilization efficacy was measured with the assistance of LB agar plates loaded with E. coli bacteria. […] The quantity of E. coli present was then analyzed and a photograph of each plate was taken. […] In the test dish 550, a 100% E. coli kill rate was observed; no E. coli was detected.

Data set [3] is described as follows: Ozone breakdown in enclosed cell culture chamber, monitored with calibrated ozone analyzer. In kind it is physicochemical. The protocol: In Experiment 1, an 1800 mg/hour ozone generator was placed in a 5.5 cubic feet cell culture. The ozone level within the chamber was monitored using a calibrated ozone analyzer. Ozone measurements were captured every 10 seconds. The experimental results, as represented by ozone level over time, are provided in the line graph 500 of FIG. 5A. In test #1, represented by line 510, the ozone generator was run for 80 minutes and achieved a peak ozone concentration within the cell culture chamber of approximately 325 ppm. After the ozone generator was turned off, the ozone was left to break down naturally within the enclosed cell culture chamber. It took approximately 28 hours for the ozone to breakdown to 0.01 ppm ozone.
In tests #2 and #3, represented by lines 520 and 530, respectively, both the ozone generator and an ozone degrader were present in the cell culture chamber. The ozone degrader was formed of three activated carbon filters. With the ozone degrader present, the ozone generator was unable to achieve the peak ozone concentration seen in test #1. In tests #2 and #3, the ozone generator was run for 120 minutes and the concentration of ozone noticeably plateaued. The air within the cell culture chamber reached a peak ozone concentration of approximately 140-150 ppm ozone. […]

Turning to `O=[O+][O-]` [ozone], the results for the half-life in data set [1] (in the air) and in data set [1] (in water) were 36 to 72 h and 0.13 to 0.5 h, respectively. Further, the “survival of the T1-phage” value with bacteriophage T1 was “negligible survival”. Moreover, in the data set with humans, the “acceptable ozone exposure in the workplace” value was “under 0.1 ppm”. Also, the “E. coli kill rate” value in data set [2] amounted to 100%. Besides, the “time for the ozone to breakdown to 0.01 ppm ozone” value in data set [3] (test #1, natural breakdown, no degrader, from peak approx. 325 ppm, 5.5 cubic feet chamber) is given as “approximately 28 hours”. Also, the “time for ozone levels to reach 0.01 ppm ozone” value in data set [3] (tests #2 and #3, three activated carbon filters as ozone degrader, from peak approx. 140-150 ppm) is at most 15 min.

Usually half-life stands for the time in which the quantity being followed falls by half.
